Laboratory results published in the supplement of paper PMC10307832.

Key:
Test in all cases: relative viability (nuclei count vs DMSO), 5 days (fraction); higher = more cells survive
[1] = compound: CN1CCC(CC1)OC2=CC(=C(C=C2)NC3=NC=C4C(=N3)N(C(=O)N4C)C5CCCC5)OC [AZ3146] + Nc1nc2[nH]cc(CCc3ccc(C(=O)N[C@@H](CCC(=O)O)C(=O)O)cc3)c2c(=O)[nH]1 [Pemetrexed] (partner 0.2 µM)
Procedure, shortened: (§1)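 Lung cancer cell lines in 1536-well plates were dosed by pin tool the day after seeding, either with one drug alone or with a fixed anchor-drug dose plus five library-drug doses (not always all listed) in √10 steps. After 5 days, cells were fixed and their nuclei stained in one step (final 0.05% Triton X-100, 1% formaldehyde, 1 ug/ml Hoechst), then counted on 4× images. Relative viability is the nuclei count in treated wells divided by that in vehicle wells. Values are medians of duplicate plates.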

[2] = compound: CCOC(=O)CCNc1cc(N2CCc3ccccc3CC2)nc(-c2ccccn2)n1 [GSK-J4] + COc1cccc2cc(-c3nc([C@H]4CC[C@H](C(=O)O)CC4)n4ncnc(N)c34)[nH]c12 [OSI-027] (partner 0.5 µM)
Procedure, shortened: as §1

[3] = compound: CN1CCC(CC1)OC2=CC(=C(C=C2)NC3=NC=C4C(=N3)N(C(=O)N4C)C5CCCC5)OC [AZ3146]
Procedure, shortened: (§2)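 Five library-drug doses, separated by factors of √10, were pinned into 1536-well plates holding lung cancer cell lines after an overnight stay at 37 °C. Cells were fixed, permeabilised and Hoechst-stained in one step after 5 days without medium change, then imaged at 4×. Viability compares treated-well with vehicle-well nuclei, counted in MetaXpress, as a median across plates. Passing plates had control CV below 25% and at least one doubling.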

[4] = compound: CCOC(=O)CCNc1cc(N2CCc3ccccc3CC2)nc(-c2ccccn2)n1 [GSK-J4]
Procedure, shortened: as §2

NCI-H2228
relative viability ([1]; first compound 0.08 µM): 0.297
relative viability ([1]; first compound 0.253 µM): 0.325
relative viability ([1]; first compound 0.8 µM): 0.333
relative viability ([1]; first compound 2.53 µM): 0.298
relative viability ([1]; first compound 8 µM): 0.37
relative viability ([2]; first compound 0.5 µM): 0.593
relative viability ([2]; first compound 1.581 µM): 0.544
relative viability ([2]; first compound 5 µM): 0.616
relative viability ([2]; first compound 15.81 µM): 0.415
relative viability ([2]; first compound 50 µM): 0.459
relative viability ([3]; 0.08 µM): 1.04
relative viability ([3]; 0.253 µM): 0.973
relative viability ([3]; 0.8 µM): 1.1
relative viability ([3]; 2.53 µM): 0.995
relative viability ([3]; 8 µM): 0.933
relative viability ([4]; 0.5 µM): 0.904
relative viability ([4]; 1.581 µM): 1.04
relative viability ([4]; 5 µM): 1.15
relative viability ([4]; 15.81 µM): 0.997
relative viability ([4]; 50 µM): 0.948

NCI-H2342
relative viability ([1]; first compound 0.08 µM): 0.69
relative viability ([1]; first compound 0.253 µM): 0.821
relative viability ([1]; first compound 0.8 µM): 0.807
relative viability ([1]; first compound 2.53 µM): 0.756
relative viability ([1]; first compound 8 µM): 0.752
relative viability ([2]; first compound 0.5 µM): 0.669
relative viability ([2]; first compound 1.581 µM): 0.626
relative viability ([2]; first compound 5 µM): 0.662
relative viability ([2]; first compound 15.81 µM): 0.615
relative viability ([2]; first compound 50 µM): 0.699
relative viability ([3]; 0.08 µM): 0.902
relative viability ([3]; 0.253 µM): 0.937
relative viability ([3]; 0.8 µM): 1.11
relative viability ([3]; 2.53 µM): 0.875
relative viability ([3]; 8 µM): 0.928
relative viability ([4]; 0.5 µM): 0.919
relative viability ([4]; 1.581 µM): 1.06
relative viability ([4]; 5 µM): 0.925
relative viability ([4]; 15.81 µM): 1.03
relative viability ([4]; 50 µM): 1.07

NCI-H2347
relative viability ([1]; first compound 0.08 µM): 0.42
relative viability ([1]; first compound 0.253 µM): 0.418
relative viability ([1]; first compound 0.8 µM): 0.458
relative viability ([1]; first compound 2.53 µM): 0.404
relative viability ([1]; first compound 8 µM): 0.416
relative viability ([2]; first compound 0.5 µM): 0.449
relative viability ([2]; first compound 1.581 µM): 0.347
relative viability ([2]; first compound 5 µM): 0.617
relative viability ([2]; first compound 50 µM): 0.338
relative viability ([3]; 0.08 µM): 0.997
relative viability ([3]; 0.253 µM): 1.03
relative viability ([3]; 0.8 µM): 0.913
relative viability ([3]; 2.53 µM): 1.1
relative viability ([3]; 8 µM): 1.07
relative viability ([4]; 0.5 µM): 0.984
relative viability ([4]; 1.581 µM): 0.879
relative viability ([4]; 5 µM): 0.886
relative viability ([4]; 15.81 µM): 0.952
relative viability ([4]; 50 µM): 0.849

NCI-H2405
relative viability ([1]; first compound 0.08 µM): 1.12
relative viability ([1]; first compound 0.253 µM): 1.06
relative viability ([1]; first compound 0.8 µM): 1.1
relative viability ([1]; first compound 2.53 µM): 1.11
relative viability ([1]; first compound 8 µM): 1.04
relative viability ([2]; first compound 0.5 µM): 0.682
relative viability ([2]; first compound 1.581 µM): 0.703
relative viability ([2]; first compound 15.81 µM): 0.521
relative viability ([2]; first compound 50 µM): 0.556
relative viability ([3]; 0.08 µM): 1.08
relative viability ([3]; 0.253 µM): 0.87
relative viability ([3]; 0.8 µM): 0.999
relative viability ([3]; 2.53 µM): 1.12
relative viability ([3]; 8 µM): 1.11
relative viability ([4]; 0.5 µM): 1.07
relative viability ([4]; 1.581 µM): 0.945
relative viability ([4]; 15.81 µM): 0.943
relative viability ([4]; 50 µM): 0.987

NCI-H3122
relative viability ([1]; first compound 0.08 µM): 0.197
relative viability ([1]; first compound 0.253 µM): 0.191
relative viability ([1]; first compound 0.8 µM): 0.203
relative viability ([1]; first compound 2.53 µM): 0.2
relative viability ([1]; first compound 8 µM): 0.185
relative viability ([2]; first compound 0.5 µM): 0.88
relative viability ([2]; first compound 5 µM): 1.1
relative viability ([2]; first compound 15.81 µM): 0.537
relative viability ([2]; first compound 50 µM): 0.674
relative viability ([3]; 0.08 µM): 0.979
relative viability ([3]; 0.253 µM): 1
relative viability ([3]; 0.8 µM): 1.02
relative viability ([3]; 2.53 µM): 0.984
relative viability ([3]; 8 µM): 0.991
relative viability ([4]; 0.5 µM): 0.941
relative viability ([4]; 1.581 µM): 0.904
relative viability ([4]; 5 µM): 0.955
relative viability ([4]; 15.81 µM): 1.05
relative viability ([4]; 50 µM): 1.02

PC-3 [JPC-3]
relative viability ([1]; first compound 0.08 µM): 0.999
relative viability ([1]; first compound 0.8 µM): 1.19
relative viability ([1]; first compound 2.53 µM): 1.02
relative viability ([1]; first compound 8 µM): 0.942
relative viability ([2]; first compound 0.5 µM): 0.71
relative viability ([2]; first compound 1.581 µM): 0.65
relative viability ([2]; first compound 5 µM): 0.737
relative viability ([2]; first compound 15.81 µM): 0.585
relative viability ([2]; first compound 50 µM): 0.732
relative viability ([3]; 0.08 µM): 0.907
relative viability ([3]; 0.253 µM): 0.97
relative viability ([3]; 0.8 µM): 1.01
relative viability ([3]; 2.53 µM): 1.05
relative viability ([3]; 8 µM): 0.979
relative viability ([4]; 0.5 µM): 1.01
relative viability ([4]; 1.581 µM): 1.03
relative viability ([4]; 5 µM): 0.953
relative viability ([4]; 15.81 µM): 0.95
relative viability ([4]; 50 µM): 0.955
